The values below come from patent publication US12344610B2, “APOL1 inhibitors and methods of use” (Maze Therapeutics, Inc., priority 2022, dated 2025).

The assay concerns human immortalized podocytes inducibly expressing APOL1 G2. The assay can be described thus: APOL1 G2 podocyte cell rescue assay (Example B4). Format: cell-based. The following applies: Homo sapiens, differentiated human podocytes, doxycycline-induced APOL1 G2, CellTiter-Glo; geometric mean of at least 2 runs; † = single run. The procedure, abridged:
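Differentiated hTERT-immortalized podocytes (clone D10) with doxycycline-inducible C-terminally HiBiT-tagged APOL1 G2, 6,000 cells/well, treated with doxycycline plus 8-point 3-fold compound series (0.4% DMSO) for 95 h at 37 °C. Viability by CellTiter-Glo luminescence; EC50 as geometric mean of ≥2 runs, each in duplicate.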
Background: ATP-based viability assays read luminescence as a measure of living cells.
`C[C@]1(O)C[C@@H](n2nnc3cc(OCCN4CCC5(CC4)C(=O)Nc4ccc(Cl)cc45)cc(C(F)(F)F)c32)C1` [Compound 434, 5-chloro-1′-[2-({1-[(cis)-3-hydroxy-3-methylcyclobutyl]-7-(trifluoromethyl)-1H-1,2,3-benzotriazol-5-yl}oxy)ethyl]-1,2-dihydrospiro[indole-3,4′-piperidin]-2-one] showed an EC50 of 1.5 nM. Consider `C[C@]1(O)C[C@@H](n2nnc3cc(OCCN4CCC5(CC4)C(=O)Nc4ccc(C#N)cc45)cc(C(F)(F)F)c32)C1` [Compound 435, 2-oxo-1′-[2-({1-[(cis)-3-hydroxy-3-methylcyclobutyl]-7-(trifluoromethyl)-1H-1,2,3-benzotriazol-5-yl}oxy)ethyl]-1,2-dihydrospiro[indole-3,4′-piperidine]-5-carbonitrile], for which the EC50 came out at 2.94 nM. With `C[C@]1(O)C[C@@H](n2cnc3cc(OCCN4CCC5(CC4)C(=O)Nc4ccc(Cl)cc45)cc(C#N)c32)C1` [Compound 439, 5-(2-{5-chloro-2-oxo-1,2-dihydrospiro[indole-3,4′-piperidin]-1′-yl}ethoxy)-1-[(cis)-3-hydroxy-3-methylcyclobutyl]-1H-1,3-benzodiazole-7-carbonitrile] the figure was 3.92 nM; with `C[C@]1(O)C[C@@H](n2nnc3cc(OCCN4CCC5(CC4)C(=O)Nc4ccc(Cl)cc45)cnc32)C1` [Compound 440, 5-chloro-1′-[2-({3-[(cis)-3-hydroxy-3-methylcyclobutyl]-3H-[1,2,3]triazolo[4,5-b]pyridin-6-yl}oxy)ethyl]-1,2-dihydrospiro[indole-3,4′-piperidin]-2-one], 15 nM. In the case of `Cc1nc2cc(OCCN3CCC4(CC3)C(=O)Nc3ccc(Cl)cc34)cc(C(F)(F)F)c2n1[C@H]1C[C@@](C)(O)C1` [Compound 442, 5-chloro-1′-[2-({2-methyl-1-[(cis)-3-hydroxy-3-methylcyclobutyl]-7-(trifluoromethyl)-1H-1,3-benzodiazol-5-yl}oxy)ethyl]-1,2-dihydrospiro[indole-3,4′-piperidin]-2-one], the EC50 was 1.16 nM.

As for `Cc1nc2cc(OCCN3CCC4(CC3)C(=O)Nc3ccc(C#N)cc34)cc(C(F)(F)F)c2n1[C@H]1C[C@@](C)(O)C1` [Compound 443, 1′-[2-({2-methyl-1-[(cis)-3-hydroxy-3-methylcyclobutyl]-7-(trifluoromethyl)-1H-1,3-benzodiazol-5-yl}oxy)ethyl]-2-oxo-1,2-dihydrospiro[indole-3,4′-piperidine]-5-carbonitrile], the response was half-maximal at 2.5 nM (EC50).

As to `C[C@]1(O)C[C@@H](n2cnc3cc(OCCN4CCC5(CC4)C(=O)Nc4ccc(C(F)F)cc45)cc(C(F)(F)F)c32)C1` [Compound 450, 5-(difluoromethyl)-1′-[2-({1-[(cis)-3-hydroxy-3-methylcyclobutyl]-7-(trifluoromethyl)-1H-1,3-benzodiazol-5-yl}oxy)ethyl]-1,2-dihydrospiro[indole-3,4′-piperidin]-2-one], the midpoint of the response, the EC50, lay at 0.846 nM.

As to `C[C@]1(O)C[C@@H](n2cnc3cc(OCCN4CCC5(CC4)C(=O)Nc4c(I)cc(Cl)cc45)cc(C(F)(F)F)c32)C1` [Compound 453, 5-chloro-7-iodo-1′-[2-({1-[(cis)-3-hydroxy-3-methylcyclobutyl]-7-(trifluoromethyl)-1H-1,3-benzodiazol-5-yl}oxy)ethyl]-1,2-dihydrospiro[indole-3,4′-piperidin]-2-one], a half-maximal effect (EC50) was put at 1.81 nM. As to `C[C@]1(O)C[C@@H](n2cnc3cc(OCCN4CCC5(CC4)C(=O)Nc4ccc(Cl)cc45)cc(F)c32)C1` [Compound 454, 5-chloro-1′-(2-((7-fluoro-1-((cis)-3-hydroxy-3-methylcyclobutyl)-1H-benzo[d]imidazol-5-yl)oxy)ethyl)spiro[indoline-3,4′-piperidin]-2-one], the EC50 was 4.34 nM. The figure for `C[C@]1(O)C[C@@H](n2ncc3cc(OCCN4CCC5(CC4)C(=O)Nc4ccc(Cl)cc45)cc(C(F)(F)F)c32)C1` [Compound 464, 5-chloro-1′-[2-({1-[(cis)-3-hydroxy-3-methylcyclobutyl]-7-(trifluoromethyl)-1H-indazol-5-yl}oxy)ethyl]-1,2-dihydrospiro[indole-3,4′-piperidin]-2-one] is 0.659 nM; for `C[C@]1(O)C[C@@H](n2ncc3cc(OCCN4CCC5(CC4)C(=O)Nc4ccc(C#N)cc45)cc(C(F)(F)F)c32)C1` [Compound 465, 2-oxo-1′-[2-({1-[(cis)-3-hydroxy-3-methylcyclobutyl]-7-(trifluoromethyl)-1H-indazol-5-yl}oxy)ethyl]-1,2-dihydrospiro[indole-3,4′-piperidine]-5-carbonitrile] it is 1.22 nM.

Broadly, the EC50 is the concentration giving half of the maximal effect.
